Holding throughout (format): in vivo
The test system of experiment [1] is Western Flower Thrips (Frankliniella occidentalis, FRANOC). Briefly: Bioassay 3: Western Flower Thrips, cotton leaf disc dip, live WFT counted 3 days after treatment. The settings on record: AI alone 0.0003125 % w/v. As to the method:
(§1) Stock solutions of Formula One and various active ingredients were prepared initially at a concentration of 8 mg/ml for Formula One and 1 mg/mL for the active ingredients, respectively, using acetone as a diluent. Stock solutions were prepared with Formula One as well as for each of the active ingredients individually. Test solutions were prepared from the stock solutions. Test solutions were prepared containing Formula One, the individual active ingredients, and mixtures of Formula One with each of the active ingredients. The test solution for Formula One was prepared by adding 500 μL of the stock solution to a 25 mL glass vial, then adding 500 μL of acetone, followed by the addition of 9 mL water with 0.025% Tween®) 20 to create a 0.04% (w/v) solution. The test solutions of the individual active ingredients were prepared by adding 500 μL of stock solution to a 25 mL glass vial, then adding 500 μL of acetone, followed by the addition of 9 mL water with 0.025% Tween®) 20 to create a 0.005% (w/v) solution. The test solutions containing mixtures of Formula One and the individual active ingredients were prepared by adding 500 μL of the active ingredient stock solution to a 25 mL glass vial, followed by 500 μL of the Formula One stock solution, then by the addition of 9 mL water with 0.025% Tween®) 20 to create a test solution containing 0.04% (w/v) Formula One and 0.005% (w/v) of the active ingredient. Each test solution was serially diluted to create desired doses of test solutions (0.005% (w/v), 0.00125% (w/v), 0.0003125% (w/v), 0.000078% (w/v), and 0.0000195% (w/v)). In test solutions containing mixtures of Formula One and the active ingredients, the active ingredients were diluted as described above, but the Concentration of Formula One was held constant (0.04% (w/v)).
The test solutions were tested against WFT using the following procedure: Leaf discs (2.7 cm in diameter) were cut from the true leaves of cotton plants. Leaf discs were dipped into the test solutions and shaken to ensure complete coverage of the leaf disc and then placed in Millipore®) PetriSlides containing a filter paper disc. Treated leaf discs were air dried for approximately 1 hour. Each leaf disc was infested with 5 WFT (9-10-day old nymphs) by placement on each leaf disc, and the PetriSlides were capped to prevent escape. Each treatment was replicated three times and the test treatments were held at approximately 26° C. and ambient relative humidity (RH) prior to grading. Reference discs (solvent check) were treated with the diluent only. Evaluation was conducted by counting the number of live WFT under magnification 3 days after treatment. Percent control was measured using Abbott's correction formula (W. S. Abbott, J. Econ. Entomol. 18 (1925), pp. 265-267) as follows:
(§2) where X=No. of live nymphs on solvent check leaf discs and Y=No. of live nymphs on treated leaf discs. In Table B3 the “Expected % Control” was calculated using the method described in Colby S. R., Weeds, 1967, 15, 20-22. Bioassay 4: Western Tarnished Plant Bug (Lygus hesperus, LYGUHE) (“WTPB”).

Experiment [2] has as its system Western Tarnished Plant Bug (Lygus hesperus, LYGUHE). Briefly: Bioassay 4: Western Tarnished Plant Bug, soaked green bean segments, living nymphs 3 days after application. The settings on record: AI alone 0.005 % w/v. As to the method: as §2
as §1, with “Stock” for “Stock solutions of Formula One and various active ingredients were prepared initially at a concentration of 8 mg/ml for Formula One and 1 mg/mL for the active ingredients, respectively, using acetone as a diluent. Stock”
The test solutions were tested against WTPB using the following procedure: Fresh green beans were cut into segments approximately 1.5 inches long. Four bean segments were added to each 25 mL vial containing the test solutions and soaked for approximately 15 minutes. After soaking, a single bean fragment was removed and placed into a single well of a 32-well rearing tray (Frontier Agricultural Sciences™), on top of a round filter paper disc. A reference treatment (solvent check) was treated with the diluent only. Each treatment was replicated four times and the test treatments were held at approximately 26° C. and ambient relative humidity (RH) prior to grading. Bean segments were allowed to air dry for ˜30 minutes. Three WTPB nymphs were added to and contained in each well with a clear perforated adhesive lid. The total number of living WTPB nymphs was recorded 3 days after application. Scoring was based off the total number of living nymphs out of all four replicates. Percent control was measured using Abbott's correction formula (W. S. Abbott, J. Econ. Entomol. 18 (1925), pp. 265-267) as follows:
X=No. of live nymphs on solvent check and Y=No. of live nymphs on treated bean segments. In Table B4 the “Expected % Control” was calculated using the method described in Colby S. R., Weeds, 1967, 15, 20-22. Bioassay 5: Neotropical Brown Stink Bug (Euschistus heros, EUSCHE) (“BSB”).

Experiment [3] concerns Cotton Aphid (Aphis gossypii, APHIGO). Briefly: Bioassay 7: Cotton Aphid, foliar spray on infested cotton seedlings, live aphids counted three days after treatment. As to conditions: AI alone 5 (10^-5) Wt %. As to the method:
where X=No. of live larvae on solvent check and Y=No. of live larvae on treated diet. In Table B6 the “Expected % Control” was calculated using the method described in Colby S. R., Weeds, 1967, 15, 20-22. Bioassay 7: Cotton Aphid (Aphis gossypii, APHIGO) (“CA”).
Stock solutions of Formula One and one or more of the active ingredients were prepared at concentrations of 1 mg/mL using a 1:1 mixture of acetone: methanol as a diluent. The stock solutions were prepared with Formula One as well as for each of the active ingredients individually. Test solutions were prepared from the stock solutions. Test solutions were prepared containing Formula One, the individual active ingredients, and mixtures of Formula One with each of the active ingredients. The test solutions for Formula One and the individual active ingredients were prepared by adding 1.5 mL of stock solution to a 30 mL glass vial, then adding 1.5 mL of 1:1 acetone: methanol solvent, followed by the addition of 27 mL water with 0.025% Tween® 20 to create a […]. Each test solution was serially diluted to create desired doses of test solutions ranging from 0.000001 to 0.0025% (w/v). The test solutions were tested against CA using the following procedure: cotton seedlings were grown in 3-inch pots with one true leaf (2-5 cm in diameter) were used as test substrate. The seedlings were infested with 20-50 CA (wingless adult and nymph stages) one day prior to chemical application. Four pots with individual seedlings were used for each treatment. A hand-held aspirator-type sprayer was used for spraying a solution to both sides of […] leaves until runoff. Reference plants (solvent check) were sprayed with the diluent only (0.025% Tween® 20 and 10% acetone:methanol (1:1) in water). Treated plants were held in a holding room for three days at approximately 25° C. and ambient relative humidity (RH about 20% to about 45%) prior to grading. Evaluation was conducted by counting the number of live aphids per plant under a microscope three days after treatment. Percent control was measured using Abbott's correction formula (W. S. Abbott, J. Econ. Entomol. 18 (1925), pp. 265-267) as follows:
where X=No. of live aphids on solvent check plants and Y=No. of live aphids on treated plants. In Table B1 the “Expected % Control” was calculated using the method described in Colby S. R., Weeds, 1967, 15, 20-22. Bioassay 8: Sweet Potato Whitefly (Bemisia tabaci, BEMITA) (“SPW”).

The test system of experiment [4] is Diamondback Moth (Plutella xylostella, PLUTMA). Briefly: Bioassay 9: Diamondback Moth, leaves of track-sprayed cabbage plants, mortality and feeding damage scored. On the procedure: where X=No. of live nymphs on solvent check plants and Y=No. of live nymphs on treated plants. In Table B2 the “Expected % Control” was calculated using the method described in Colby S. R., Weeds, 1967, 15, 20-22. Bioassay 9: Diamondback Moth (Plutella xylostella, PLUTMA) (DBM).
Stock solutions were prepared with Formula One as well as for each of the active ingredients individually. Test solutions were prepared from the stock solutions. Test solutions were prepared containing Formula One, the individual active ingredients, and mixtures of Formula One with each of the active ingredients. The test solution for Formula One was prepared by adding 500 μL of the stock solution to a 25 mL glass vial, then adding 500 μL of a 9:1 mixture of acetone: water. The individual active ingredients were prepared by adding 500 μL of stock solution to a 25 mL glass vial, then adding 500 μL of a 9:1 mixture of acetone: water. The test solutions containing mixtures of Formula One and the individual active ingredients were prepared by adding 500 μL of the active ingredient stock solution to a 25 mL glass vial, followed by 500 μL of the Formula One stock solution, creating a test solution containing 4000 ppm Formula One and 0.4% (w/v) of the active ingredient. Each test solution was serially diluted to create desired doses of test solutions (0.4% (w/v), 0.04% (w/v), 0.004% (w/v), 0.0004% (w/v), 0.00004% (w/v), and 0.000004% (w/v)). In test solutions containing mixtures of Formula One and the active ingredients, the active ingredients were diluted as described above, but the Concentration of Formula One was held constant (0.4% (w/v)). The highest dose test solution (0.4% (w/v)) was discarded, leaving 5 test solution concentrations used in the test.
Cabbage seedlings, grown in 3-inch pots with 2-3 small (3-5 centimeter (cm)) true leaves, were used as test substrate. Cabbage plants were sprayed with desired concentrations of Formula One and active ingredients or their mixtures using a track Sprayer. Reference plants (solvent check) were sprayed with diluent only (0.025% Tween® 20 and 10% acetone:methanol (1:1) in water). The sprayed cabbage plants were allowed to dry for 1 hour, after which leaves from each treatment were placed in a cell of a plastic tray. One leaf per cell and 8 replicates for each cell. The tested doses ranged between 0.000001% (w/v) to 0.0002% (w/v). One 2nd instar DBM larvae were placed in each cell of the tray and allowed to feed on the cabbage foliage for […] after which the mortality and feeding damage were scored. Test trays were held at approximately 26° C. and ambient relative humidity (RH) prior to grading. The number of live larvae were recorded from each cell and percent control was measured using Abbott's correction formula (W. S. Abbott, J. Econ. Entomol. 18 (1925), pp. 265-267) as follows:
where X=No. of live larvae on solvent check and Y=No. of live larvae on treated diet. In Table B6 the “Expected % Control” was calculated using the method described in Colby S. R., Weeds, 1967, 15, 20-22.

Take `O=c1c(-c2cccc(C(F)(F)F)c2)c([O-])[n+](Cc2cncnc2)c2ccccn12` [Triflumezopyrim]: the entries for the “Average % Control AI” value in experiment [1] and in experiment [2] were 7% and 9%, respectively.

As to `CC1(C)C(C=C(Cl)Cl)C1C(=O)OC(C#N)c1ccc(F)c(Oc2ccccc2)c1` (stereo not drawn) [Beta-Cyfluthrin], in experiment [3], the “Average % Control A1” value amounted to 21.34%. For the same compound, the “Average % Control AI” value in experiment [4] (AI alone 5 (10^-5) Wt %) was 13.64%; in experiment [4] (AI alone 10 (10^-5) Wt %) it was 27.27%; in experiment [4] (AI alone 20 (10^-5) Wt %) it was 72.73%.

Source of the values: patent publication US20250338846A1, “COMPOSITIONS HAVING PESTICIDAL UTILITY AND PROCESSES RELATED THERETO” (CORTEVA AGRISCIENCE, LLC, priority 2022, published 2025).
